# Test results published in a melting point compilation (Tetko et al.).
row,Compound,melting point [°C]
1,CCCCCCCCCCCCCCCCCCC1CCCCC1,41.6
2,CN(C)c1ccc(N=c2cc(-c3ccccc3)cc(-c3ccccc3)s2)cc1,148
3,Cc1cc([N+](=O)[O-])ccc1I,102
4,O=C1C2CC=CCC2C(=O)N1SC(Cl)(Cl)Cl (centres undefined),178
5,O=Cc1csc2ccccc12,56 to 58
6,O=C(Oc1ccccc1)c1ccc2ccccc2c1O,93 to 97
7,O=[N+]([O-])c1cc(Br)cc(Br)c1O,118 to 119
8,O=C(O)C12CC3CC(C1)CC(C(F)(F)C(F)C(F)(F)F)(C3)C2 (centres undefined),115 to 117
9,Clc1cc2c(c(Cl)c1Cl)Oc1c(Cl)c(Cl)c(Cl)c(Cl)c1O2,264
10,CC12CCCCC1CCC1C2CCC2(C)C1CCC21OCCO1 (centres undefined),143
11,CC12CCC3C(C(=O)CC4CC(O)CCC43C)C1CCC2O (centres undefined),198
12,N#Cc1c(F)cccc1OCc1ccc(Cl)cc1,146 to 148
13,COc1ccc2c(c1)OC1c3ccc(O)cc3OCC21 (centres undefined),128
14,C[C@@]12C=CC(=O)N1[C@@H](c1ccccc1)CO2,88 to 92
15,Cn1c(S)nnc1CC#N,188 to 190
16,C#Cc1cccnc1,40
17,Nc1ccc(N)nc1,110
18,Cc1ccc(-n2ncc(Cl)c(Cl)c2=O)cc1,144 to 146
19,N#C/C(=N\Nc1ccc([N+](=O)[O-])cc1)c1nc2ccccc2c(=O)[nH]1,273
20,BrC(=Cc1ccccc1)c1ccc(Br)c2c(Br)cccc12,171
21,Cc1ccc(N)c(Cl)n1,88 to 91
22,Cc1cccc(O)n1,159

row,Compound,melting point [°C]
1,CC(C)OC(=O)OOC(=O)OC(C)C,10
2,FC(F)(F)C(F)(F)C(Cl)(Cl)Cl,-80
3,CCOC(=O)NP(=O)(N1CC1)N1CC1,89
4,CC12CCC(O)CC1CCC1C2CCC2(C)C(OC(=O)c3ccccc3)CCC12 (centres undefined),194
5,OCCCCCCCCCCCCCCO,85.8
6,CC1(O)CCC2C3CCC4=CC(=O)CCC4(C)C3(F)C(O)CC21C (centres undefined),270
7,O=c1[nH]c2ccc([N+](=O)[O-])cc2c(=O)o1,259 to 263
8,CCCCCCCCCCCCCCCCCCCCCCCCCCCCCC[Si](C)(C)Cl,60 to 80
9,N#Cc1c(N)cc(N)nc1Br,257
10,c1ccc(CNCc2ccccc2)cc1,-26
11,Clc1ccccc1C(c1ccccc1)(c1ccccc1)n1ccnc1,147
12,Cc1cccc(OP(=O)(Oc2cccc(C)c2)Oc2cccc(C)c2)c1,25.5
13,Sc1nc(-c2ccccc2)c(-c2ccccc2)o1,253
14,CCP(CC)CC,-88
15,O=C(c1cccs1)c1nn2c(nc(=O)c3ccccc32)s1,236
16,COc1ccccc1C1Nc2nc(C(F)(F)F)nn2C(N)=C1C#N (centres undefined),245
17,Cc1ccc2c(c1Cc1ccccc1)CCC1C2CCC2CCCCC21C (centres undefined),95
18,CCOc1ncnc2c1cnn2-c1ccccc1,94 to 96
19,Cn1ccc(-c2ccc(N=C=O)cc2)n1,67 to 70
20,c1cc2ccc3ccc4ccc5cccc6c(c1)c2c3c4c56,278
21,CCc1cnc(C2=NC(C)(C(C)C)C(=O)N2)c(C(=O)O)c1 (centres undefined),171

# The remaining lines, values ahead:
row,melting point [°C],Compound
1,31,CN(C)S(=O)N(C)C
2,184,CC(=O)Nc1cc(NS(=O)(=O)C(F)(F)F)c(C)cc1C
3,-84.5,CCCC(=O)OC
4,82,COC(=O)c1ccc(C(=O)OC)c(F)c1
5,218,CC(=O)NC(N)=O
6,152,CCC(C)C(=O)OC1CCC=C2C=CC(C)C(CCC3CC(O)CC(=O)O3)C21 (centres undefined)
7,-74,CC(=O)CCC(C)C
8,230,Cc1nc2ccc(C(=O)O)cc2nc1C
9,148 to 149,CNC(=O)c1cc([N+](=O)[O-])cc([N+](=O)[O-])c1
10,62 to 63,COC(=O)c1ccccc1S(=O)(=O)Cl
11,89.5,CCCNC(=O)COC(=O)c1ccccc1
12,-50,CC(C)C(=O)OCC(C)(C)C(O)C(C)C (centres undefined)
13,152 to 154,O=S(=O)(O)CCN(CCO)CCO
14,97,CC(=O)c1cc(Cl)cc(Cl)c1O
15,177,CCCOC(=O)C1=C(C)NC(=S)NC1c1ccco1 (centres undefined)
16,127 to 129,COC(=O)c1cc2ccsc2[nH]1
17,256 to 260,O=C(O)C1Cc2cc(O)ccc2CN1 (racemic)
18,202 to 207,CC(=O)Nc1cc(Cl)ccc1C(=O)O
19,168 to 172,CC(=O)Nc1ccc(Cl)c(N)c1
20,104,COc1ccc(C(=O)CBr)c(OC)c1
21,273,NC(CCS(=O)(=O)O)C(=O)O (racemic)
22,114,COc1cc(CCNC(=O)CC(C)C)ccc1OCc1ccccc1
23,157,CC(=O)OCC(=O)C1CCC2C3CCC4=CC(=O)CCC4(C)C3CCC12C (centres undefined)
24,-10,C=CCOCC(CC)(CO)CO
25,84 to 89,CC(C)(C)OC(=O)N1c2ccccc2CC1CO (centres undefined)
26,139 to 143,COC(=O)c1ccc2[nH]cnc2c1

row,melting point [°C],Compound
1,165 to 170,CC(=O)NNC(N)=S
2,-80,C=COC(=O)CC
3,185 to 188,O=C(O)c1[nH]c2ccccc2c1Br
4,249,O=C(O)c1cc2cc(O)ccc2[nH]1
5,66,CCCCCCCCCCNC(=O)C(C(F)(F)F)C(F)(F)F
6,172 to 173,Cc1cc(Cl)ccc1C(=O)O
7,186,CCNc1nc2c(cc1C(=O)OCC)c(=O)oc1ccccc12
8,132 to 136,CSCC[C@H](NC(=O)OCC1c2ccccc2-c2ccccc21)C(=O)O
9,56,CC(=O)c1ccc(F)c(Br)c1
10,201 to 203,Cc1nc(-c2ccccc2)c(C(=O)O)s1
11,-71,CCCCCC(=O)OC
12,256,Cc1cccc(C)c1NC(=O)c1cc(S(N)(=O)=O)c(Cl)cc1O
13,180 to 185,CCOC(=O)Oc1c(OC)cc(C(=O)O)cc1OC
14,37 to 39,Cc1nccn1C
15,98,Cc1c(C)n(C(=O)c2ccccc2)c2ccccc12
16,222 to 223,O=C(O)c1ccc(CN2CCS(=O)(=O)CC2)cc1
17,99 to 102,CCOc1cc2c(cc1OCC)C(CC#N)NCC2 (centres undefined)
18,139,Cc1c(C)c(C)c2c(c1C)CC1C=CC=CN1C2=O (centres undefined)
19,20.4,CCCCCCCCCCCCCCCC(=O)OCCC
20,214 to 216,COc1cccc2cc(C(=O)O)c(=O)oc12
21,72.5,CCCCCc1ccc(O)cc1O
22,147 to 148,Cc1cc(C)c(C2(C)CC(C(=O)c3cc4ccccc4o3)C2)c(C)c1 (centres undefined)
23,165 to 166,CC(C)(C)OC(=O)N1CCN(c2ccccc2C(=O)O)CC1
24,118,Cc1ccc([N+](=O)[O-])cc1O
25,42 to 45,CCOC(=O)Cn1c(Br)nc(Cl)c1Cl
